Measured values published in US20250154686A1, “COMPOUND LIBRARY” (CHUGAI SEIYAKU KABUSHIKI KAISHA, priority 2021, published 2025).

Target: T1, Bcl-2 protein (Recombinant Human Bcl-2 Protein) (Homo sapiens, UniProt P10415)
T1 construct: purchased Novus Biologicals NBP2-34889
Assay: AS-MS evaluation of binding of the Example 4 mixture library (1200 compounds/well) to Bcl-2, ASMS ratio (%)
Conditions: AS-MS, Example 4 mixture library; for ASMS ratio (%) n = 1: Bcl-2, replicate n = 1; for ASMS ratio (%) n = 2: Bcl-2, replicate n = 2
Summary of the method: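 Recombinant human Bcl-2 at 20 μM final was exposed to a 1200-member compound pool (20 nM per compound) in pH 7.4 Tris-HCl buffer containing NaCl, Tween-20 and DTT. After 1 h at 23 °C, protein–ligand complexes passed SEC spin columns; LC/MS signals were compared with protein-free standard and blank samples to give ASMS ratio.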

T1 sequence (P10415 whole entry): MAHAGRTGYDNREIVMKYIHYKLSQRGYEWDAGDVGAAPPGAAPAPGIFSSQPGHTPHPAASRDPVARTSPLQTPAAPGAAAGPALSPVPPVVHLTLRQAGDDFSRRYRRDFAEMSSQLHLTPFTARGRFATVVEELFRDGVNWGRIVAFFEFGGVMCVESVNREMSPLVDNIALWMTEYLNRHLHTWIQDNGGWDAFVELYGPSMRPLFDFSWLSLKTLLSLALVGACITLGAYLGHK

ASMS ratio (%) n = 1	ASMS ratio (%) n = 2	SMILES
9.7%	0.0%	CCOc1cccc(-c2cc(C(=O)N3CCN(c4ccc(C(=O)NS(=O)(=O)c5ccc(NCCSc6ccccc6)c(C(F)(F)F)c5)nn4)CC3)cc(C(C)(C)C)c2)c1 [Compound B2R015-01, 6-[4-[3-tert-Butyl-5-(3-ethoxyphenyl)benzoyl]piperazin-1-yl]-N-[4-(2-phenylsulfanylethylamino)-3-(trifluoromethyl)phenyl]sulfonylpyridazine-3-carboxamide]
9.1%	2.7%	CCOc1cncc(-c2cc(C(=O)N3CCN(c4ccc(C(=O)NS(=O)(=O)c5ccc(NCCSc6ccccc6)c(C(F)(F)F)c5)nn4)CC3)cc(C(C)(C)C)c2)c1 [Compound B2R016-01, 6-[4-[3-tert-Butyl-5-(5-ethoxypyridin-3-yl)benzoyl]piperazin-1-yl]-N-[4-(2-phenylsulfanylethylamino)-3-(trifluoromethyl)phenyl]sulfonylpyridazine-3-carboxamide]
32.9%	27.2%	CCOc1cccc(-c2cc(C(=O)N3CCN(c4ccc(C(=O)NS(=O)(=O)c5ccc(NCCSc6ccccc6)c(C(F)(F)F)c5)nn4)CC3)cc(C(F)(F)F)c2)c1 [Compound B2R017-01, 6-[4-[3-(3-Ethoxyphenyl)-5-(trifluoromethyl)benzoyl]piperazin-1-yl]-N-[4-(2-phenylsulfanylethylamino)-3-(trifluoromethyl)phenyl]sulfonylpyridazine-3-carboxamide]
5.1%	7.8%	CCOc1cncc(-c2cc(C(=O)N3CCN(c4ccc(C(=O)NS(=O)(=O)c5ccc(NCCSc6ccccc6)c(C(F)(F)F)c5)nn4)CC3)cc(C(F)(F)F)c2)c1 [Compound B2R018-01, 6-[4-[3-(5-Ethoxypyridin-3-yl)-5-(trifluoromethyl)benzoyl]piperazin-1-yl]-N-[4-(2-phenylsulfanylethylamino)-3-(trifluoromethyl)phenyl]sulfonylpyridazine-3-carboxamide]
5.2%	14.0%	CCOc1cccc(C#Cc2cc(C(=O)N3CCN(c4ccc(C(=O)NS(=O)(=O)c5ccc(NCCSc6ccccc6)c(C(F)(F)F)c5)nn4)CC3)cc(C(F)(F)F)c2)c1 [Compound B2R019-01, 6-[4-[3-[2-(3-Ethoxyphenyl)ethynyl]-5-(trifluoromethyl)benzoyl]piperazin-1-yl]-N-[4-(2-phenylsulfanylethylamino)-3-(trifluoromethyl)phenyl]sulfonylpyridazine-3-carboxamide]
10.8%	−17.7%	CCOc1cncc(C#Cc2cc(C(=O)N3CCN(c4ccc(C(=O)NS(=O)(=O)c5ccc(NCCSc6ccccc6)c(C(F)(F)F)c5)nn4)CC3)cc(C(F)(F)F)c2)c1 [Compound B2R020-01, 6-[4-[3-[2-(5-Ethoxypyridin-3-yl)ethynyl]-5-(trifluoromethyl)benzoyl]piperazin-1-yl]-N-[4-(2-phenylsulfanylethylamino)-3-(trifluoromethyl)phenyl]sulfonylpyridazine-3-carboxamide]
13.0%	0.0%	CCOc1cccc(-c2cnn(-c3cc(C(=O)N4CCN(c5ccc(C(=O)NS(=O)(=O)c6ccc(NCCSc7ccccc7)c(C(F)(F)F)c6)nn5)CC4)cc(C(F)(F)F)c3)c2)c1 [Compound B2R021-01, 6-[4-[3-[4-(3-Ethoxyphenyl)pyrazol-1-yl]-5-(trifluoromethyl)benzoyl]piperazin-1-yl]-N-[4-(2-phenylsulfanylethylamino)-3-(trifluoromethyl)phenyl]sulfonylpyridazine-3-carboxamide]
14.5%	15.8%	CCOc1cncc(-c2cnn(-c3cc(C(=O)N4CCN(c5ccc(C(=O)NS(=O)(=O)c6ccc(NCCSc7ccccc7)c(C(F)(F)F)c6)nn5)CC4)cc(C(F)(F)F)c3)c2)c1 [Compound B2R022-01, 6-[4-[3-[4-(5-Ethoxypyridin-3-yl)pyrazol-1-yl]-5-(trifluoromethyl)benzoyl]piperazin-1-yl]-N-[4-(2-phenylsulfanylethylamino)-3-(trifluoromethyl)phenyl]sulfonylpyridazine-3-carboxamide]
0.0%	−15.5%	CCOc1cccc(-c2csc(C(=O)N3CCN(c4ccc(C(=O)NS(=O)(=O)c5ccc(NCCSc6ccccc6)c(C(F)(F)F)c5)cc4)CC3)c2)c1 [Compound B2R023-01, 4-[4-[4-(3-Ethoxyphenyl)thiophene-2-carbonyl]piperazin-1-yl]-N-[4-(2-phenylsulfanylethylamino)-3-(trifluoromethyl)phenyl]sulfonylbenzamide]
0.0%	−1.2%	CCOc1cncc(-c2csc(C(=O)N3CCN(c4ccc(C(=O)NS(=O)(=O)c5ccc(NCCSc6ccccc6)c(C(F)(F)F)c5)cc4)CC3)c2)c1 [Compound B2R024-01, 4-[4-[4-(5-Ethoxypyridin-3-yl)thiophene-2-carbonyl]piperazin-1-yl]-N-[4-(2-phenylsulfanylethylamino)-3-(trifluoromethyl)phenyl]sulfonylbenzamide]
−1.0%	−2.4%	CCOc1cccc(-c2ccc(C(=O)N3CCN(c4ccc(C(=O)NS(=O)(=O)c5ccc(NCCSc6ccccc6)c(C(F)(F)F)c5)cc4)CC3)cc2C)c1 [Compound B2R025-01, 4-[4-[4-(3-Ethoxyphenyl)-3-methylbenzoyl]piperazin-1-yl]-N-[4-(2-phenylsulfanylethylamino)-3-(trifluoromethyl)phenyl]sulfonylbenzamide]
1.7%	−4.6%	CCOc1cncc(-c2ccc(C(=O)N3CCN(c4ccc(C(=O)NS(=O)(=O)c5ccc(NCCSc6ccccc6)c(C(F)(F)F)c5)cc4)CC3)cc2C)c1 [Compound B2R026-01, 4-[4-[4-(5-Ethoxypyridin-3-yl)-3-methylbenzoyl]piperazin-1-yl]-N-[4-(2-phenylsulfanylethylamino)-3-(trifluoromethyl)phenyl]sulfonylbenzamide]
−3.7%	1.2%	CCOc1cccc(-c2ccc(C(=O)N3CCN(c4ccc(C(=O)NS(=O)(=O)c5ccc(NCCSc6ccccc6)c(C(F)(F)F)c5)cc4)CC3)cc2F)c1 [Compound B2R027-01, 4-[4-[4-(3-Ethoxyphenyl)-3-fluorobenzoyl]piperazin-1-yl]-N-[4-(2-phenylsulfanylethylamino)-3-(trifluoromethyl)phenyl]sulfonylbenzamide]
4.1%	−0.5%	CCOc1cncc(-c2ccc(C(=O)N3CCN(c4ccc(C(=O)NS(=O)(=O)c5ccc(NCCSc6ccccc6)c(C(F)(F)F)c5)cc4)CC3)cc2F)c1 [Compound B2R028-01, 4-[4-[4-(5-Ethoxypyridin-3-yl)-3-fluorobenzoyl]piperazin-1-yl]-N-[4-(2-phenylsulfanylethylamino)-3-(trifluoromethyl)phenyl]sulfonylbenzamide]
–	0.0%	CCOc1cccc(C#Cc2ccccc2C(=O)N2CCN(c3ccc(C(=O)NS(=O)(=O)c4ccc(NCCSc5ccccc5)c(C(F)(F)F)c4)cc3)CC2)c1 [Compound B2R029-01, 4-[4-[2-[2-(3-Ethoxyphenyl)ethynyl]benzoyl]piperazin-1-yl]-N-[4-(2-phenylsulfanylethylamino)-3-(trifluoromethyl)phenyl]sulfonylbenzamide]
